Read-outs that look alike come from different tables or passages of the source.
Key:
Assay type in all cases: in vivo
[1] = system: Mycosphaerella graminicola; Anamorph: Septoria tritici; test: Leaf Blotch of Wheat (SEPTTR) fungicidal activity on wheat seedlings; settings: Zymoseptoria tritici, Low Volume, 121.5 g/H
Outline: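 Compounds in acetone were diluted with nine volumes of water containing 110 ppm Triton X-100, or as EC formulations with 0.1% Trycol 5941 for track spray. They were sprayed on first-leaf Yuma wheat seedlings inoculated with S. tritici before or after treatment. Plants spent 1 day dark and 2–3 days lit at 100% RH, 20 °C. Severity (0–100%) was scored once untreated plants were fully diseased; control was computed relative to untreated plants.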

Leptosphaeria nodorum = test: Wheat Glume Blotch (LEPTNO) fungicidal activity on wheat seedlings; settings: Parastagonospora nodorum, 24 h, 1 Day Protectant, read-out: LEPTNO 1 DP disease control
Description: Technical grades of materials were dissolved in acetone, which were then mixed with nine volumes of water (H2O) containing 110 ppm Triton X-100. The fungicide solutions were applied onto wheat seedlings using an automated booth sprayer to run-off. All sprayed plants were allowed to air dry prior to further handling. All fungicides were evaluated using the aforementioned method for their activity vs. all target diseases, unless stated otherwise. Wheat leaf blotch and brown rust activity were also evaluated using track spray applications, in which case the fungicides were formulated as EC formulations, containing 0.1% Trycol 5941 in the spray solutions. Wheat plants (variety Yuma) were grown from seed in a greenhouse in 50% mineral soil/50% soil-less Metro mix until the first leaf was fully emerged, with 7-10 seedlings per pot. These plants were inoculated with an aqueous spore suspension of Septoria tritici either prior to or after fungicide treatments. After inoculation the plants were kept in 100% relative humidity (one day in a dark dew chamber followed by two to three days in a lighted dew chamber at 20° C.) to permit spores to germinate and infect the leaf. The plants were then transferred to a greenhouse set at 20° C. for disease to develop. When disease symptoms were fully expressed on the 1st leaves of untreated plants, infection levels were assessed on a scale of 0 to 100 percent disease severity. Percent disease control was calculated using the ratio of disease severity on treated plants relative to untreated plants. Example C: Evaluation of Fungicidal Activity: Wheat Glume Blotch (Leptosphaeria nodorum; Bayer code […]) Wheat plants (variety Yuma) were grown from seed in a greenhouse in 50% mineral soil/50% soil-less Metro mix until the first leaf was fully emerged, with 7-10 seedlings per pot. These plants were inoculated with an aqueous spore suspension of Leptosphaeria nodorum 24 h after fungicide treatments. After inoculation the plants were kept in 100% relative humidity (one day in a dark dew chamber followed by two days in a lighted dew chamber at 20° C.) to permit spores to germinate and infect the leaf. The plants were then transferred to a greenhouse set at 20° C. for disease to develop. Fungicide formulation, application and disease assessment followed the procedures as described in the Example A.

Cercospora beticola = test: Leaf Spot of Sugar Beets (CERCBE) fungicidal activity on sugar beet plants; settings: 24 h, 1 Day Protectant, read-out: CERCBE 1 DP disease control
Description: Technical grades of materials were dissolved in acetone, which were then mixed with nine volumes of water (H2O) containing 110 ppm Triton X-100. The fungicide solutions were applied onto wheat seedlings using an automated booth sprayer to run-off. All sprayed plants were allowed to air dry prior to further handling. All fungicides were evaluated using the aforementioned method for their activity vs. all target diseases, unless stated otherwise. Wheat leaf blotch and brown rust activity were also evaluated using track spray applications, in which case the fungicides were formulated as EC formulations, containing 0.1% Trycol 5941 in the spray solutions. Wheat plants (variety Yuma) were grown from seed in a greenhouse in 50% mineral soil/50% soil-less Metro mix until the first leaf was fully emerged, with 7-10 seedlings per pot. These plants were inoculated with an aqueous spore suspension of Septoria tritici either prior to or after fungicide treatments. After inoculation the plants were kept in 100% relative humidity (one day in a dark dew chamber followed by two to three days in a lighted dew chamber at 20° C.) to permit spores to germinate and infect the leaf. The plants were then transferred to a greenhouse set at 20° C. for disease to develop. When disease symptoms were fully expressed on the 1st leaves of untreated plants, infection levels were assessed on a scale of 0 to 100 percent disease severity. Percent disease control was calculated using the ratio of disease severity on treated plants relative to untreated plants. Example E: Evaluation of Fungicidal Activity: Leaf Spot of Sugar Beets (Cercospora beticola; Bayer code CERCBE) Sugar beet plants (variety HH88) were grown in soil-less Metro mix and trimmed regularly to maintain a uniform plant size prior to test. Plants were inoculated with a spore suspension 24 h after fungicide treatments. Inoculated plants were kept in a dew chamber at 22° C. for 48 h then incubated in a greenhouse set at 24° C. under a clear plastic hood with bottom ventilation until disease symptoms were fully expressed. Fungicide formulation, application and disease assessment on the sprayed leaves followed the procedures as described in the Example A.

[2] = 24 h, 1 Day Protectant, read-out: SEPTTR 1DP disease control
[3] = 72 h, 3 Day Curative, read-out: SEPTTR 3DC disease control

COc1ccnc(C(=O)N[C@@H](C)C(=O)O[C@@H](C)C(c2ccccc2)c2ccccc2)c1OC(=O)C(C)C [Cmpd 140]
> 80%: pest or weed control at 121.5 g/ha [1, 2] | pest or weed control at 121.5 g/ha [1, 3] | pest or weed control at 100 ppm (Leptosphaeria nodorum) | pest or weed control at 100 ppm (Cercospora beticola)

COc1ccnc(C(=O)N[C@@H](C)C(=O)O[C@@H](C)C(c2ccc(F)cc2)c2ccc(F)cc2)c1OC(C)=O [Cmpd 145]
> 80%: pest or weed control at 121.5 g/ha [1, 2] | pest or weed control at 121.5 g/ha [1, 3] | pest or weed control at 100 ppm (Leptosphaeria nodorum) | pest or weed control at 100 ppm (Cercospora beticola)

COc1ccnc(C(=O)N[C@@H](C)C(=O)O[C@@H](C)C(c2ccccc2)c2ccccc2)c1OCOC(=O)C(C)C [Cmpd 142, (S)-(S)-1,1-diphenylpropan-2-yl 2-(3-((isobutyryloxy)methoxy)-4-methoxypicolinamido)propanoate]
> 80%: pest or weed control at 121.5 g/ha [1, 2] | pest or weed control at 121.5 g/ha [1, 3] | pest or weed control at 100 ppm (Leptosphaeria nodorum) | pest or weed control at 100 ppm (Cercospora beticola)

COc1ccnc(C(=O)N[C@@H](C)C(=O)O[C@@H](C)C(c2ccccc2)c2ccccc2)c1OCOC(C)=O [Cmpd 141, (S)-(S)-1,1-diphenylpropan-2-yl 2-(3-(acetoxymethoxy)-4-methoxypicolinamido)propanoate]
> 80%: pest or weed control at 121.5 g/ha [1, 2] | pest or weed control at 121.5 g/ha [1, 3] | pest or weed control at 100 ppm (Leptosphaeria nodorum) | pest or weed control at 100 ppm (Cercospora beticola)

COc1ccnc(C(=O)N[C@@H](C)C(=O)O[C@@H](C)C(c2ccc(F)cc2)c2ccc(F)cc2)c1OCOC(C)=O [Cmpd 146]
> 80%: pest or weed control at 121.5 g/ha [1, 2] | pest or weed control at 121.5 g/ha [1, 3] | pest or weed control at 100 ppm (Leptosphaeria nodorum) | pest or weed control at 100 ppm (Cercospora beticola)

COc1ccnc(C(=O)N[C@@H](C)C(=O)O[C@@H](C)C(c2ccc(F)cc2F)c2ccc(F)cc2F)c1OC(C)=O [Cmpd 150]
> 80%: pest or weed control at 121.5 g/ha [1, 2] | pest or weed control at 121.5 g/ha [1, 3] | pest or weed control at 100 ppm (Leptosphaeria nodorum) | pest or weed control at 100 ppm (Cercospora beticola)

COc1ccnc(C(=O)N[C@@H](C)C(=O)O[C@@H](C)C(c2ccc(Cl)cc2)c2ccc(Cl)cc2)c1OCOC(C)=O [Cmpd 176]
> 80%: pest or weed control at 121.5 g/ha [1, 2] | pest or weed control at 121.5 g/ha [1, 3] | pest or weed control at 100 ppm (Leptosphaeria nodorum) | pest or weed control at 100 ppm (Cercospora beticola)

COc1ccnc(C(=O)N[C@@H](C)C(=O)O[C@@H](C)C(c2ccc(F)cc2F)c2ccc(F)cc2F)c1OCOC(C)=O [Cmpd 148]
> 80%: pest or weed control at 121.5 g/ha [1, 2] | pest or weed control at 121.5 g/ha [1, 3] | pest or weed control at 100 ppm (Leptosphaeria nodorum) | pest or weed control at 100 ppm (Cercospora beticola)

COc1ccnc(C(=O)N[C@@H](C)C(=O)O[C@@H](C)C(c2ccccc2)c2ccccc2)c1OC(C)=O [Cmpd 139, (S)-(S)-1,1-diphenylpropan-2-yl 2-(3-acetoxy-4-methoxypicolinamido)propanoate]
> 80%: pest or weed control at 121.5 g/ha [1, 2] | pest or weed control at 121.5 g/ha [1, 3] | pest or weed control at 100 ppm (Leptosphaeria nodorum) | pest or weed control at 100 ppm (Cercospora beticola)

COc1ccnc(C(=O)N[C@@H](C)C(=O)O[C@@H](C)C(c2ccc(Cl)cc2)c2ccc(Cl)cc2)c1OC(C)=O [Cmpd 174]
> 80%: pest or weed control at 121.5 g/ha [1, 2] | pest or weed control at 121.5 g/ha [1, 3] | pest or weed control at 100 ppm (Leptosphaeria nodorum) | pest or weed control at 100 ppm (Cercospora beticola)

Reference: patent publication US20240423207A1, “PICOLINAMIDE COMPOUNDS WITH FUNGICIDAL ACTIVITY” (CORTEVA AGRISCIENCE LLC, priority 2014, published 2024)
